# Data reported in patent US20250127162A1, “METHODS AND COMPOSITIONS FOR CONTROLLING PESTS IN RICE” (Globachem NV, priority 2022, published 2025).
# Tested on: Chilo suppressalis
# Assay: Rice field trials, Chilo suppressalis insect damage / white heads (Example 1, Trials 3-4, Thailand)
# Assay type: in vivo
# Conditions: Trial 3
# Method: All applications were made with an EC formulation containing 650 g/L of pelargonic acid (e.g., 685 g/L of 95% purity pelargonic acid), an anionic emulsifier and a branched fatty acid ester solvent. […] Trials 1 4 assessing the use of pelargonic acid for controlling Chilo suppressalis in rice were conducted in Spain and Thailand. Application A was made to the crops at the beginning of infestations; for these trials, Stage BBCH 59; Application B was made 14 days after Application A. Trial 3 was conducted in Thailand using a water volume of 500 L/ha of water per application unless otherwise indicated. Insect Damage ([…] %), Insect Damage (Number) and Phytotoxicity were assessed at various treatment evaluation intervals. Population levels were recorded by counting number of rice plants per hill, number of white head (damage from rice stem borer) followed by calculation of % insect damage. Trial 4 was conducted in Thailand using a water volume of 500 L/ha of water per application unless otherwise indicated. Insect Damage ([…] %), Insect Damage (Number) and Phytotoxicity were assessed at various treatment evaluation intervals. Population levels were recorded by counting number of rice plants per hill, number of white head (damage from rice stem borer) followed by calculation of % insect damage.
# [1] = 0 DAA, water volume 500 L/ha, rate in treatment name, Prevathon 0.5 L/ha, listed as PA 585 g/ha
# [2] = 0 DAA, water volume 500 L/ha, rate in treatment name, Prevathon 0.5 L/ha, listed as PA 975 g/ha
# [3] = 0 DAA, water volume 500 L/ha, rate in treatment name, Prevathon 0.5 L/ha, listed as PA 1300 g/ha
# [4] = 0 DAA, water volume 500 L/ha, rate in treatment name, Prevathon 0.5 L/ha, listed as PA 2600 g/ha
# [5] = 0 DAB, water volume 500 L/ha, rate in treatment name, Prevathon 0.5 L/ha, listed as PA 585 g/ha
# [6] = 0 DAB, water volume 500 L/ha, rate in treatment name, Prevathon 0.5 L/ha, listed as PA 975 g/ha
# [7] = 0 DAB, water volume 500 L/ha, rate in treatment name, Prevathon 0.5 L/ha, listed as PA 1300 g/ha
# [8] = 0 DAB, water volume 500 L/ha, rate in treatment name, Prevathon 0.5 L/ha, listed as PA 2600 g/ha
# [9] = 7 DAA, water volume 500 L/ha, rate in treatment name, Prevathon 0.5 L/ha, listed as PA 585 g/ha
# [10] = 7 DAA, water volume 500 L/ha, rate in treatment name, Prevathon 0.5 L/ha, listed as PA 975 g/ha
# [11] = 7 DAA, water volume 500 L/ha, rate in treatment name, Prevathon 0.5 L/ha, listed as PA 1300 g/ha
# [12] = 7 DAA, water volume 500 L/ha, rate in treatment name, Prevathon 0.5 L/ha, listed as PA 2600 g/ha
# [13] = 7 DAB, water volume 500 L/ha, rate in treatment name, Prevathon 0.5 L/ha, listed as PA 585 g/ha
# [14] = 7 DAB, water volume 500 L/ha, rate in treatment name, Prevathon 0.5 L/ha, listed as PA 975 g/ha
# [15] = 7 DAB, water volume 500 L/ha, rate in treatment name, Prevathon 0.5 L/ha, listed as PA 1300 g/ha
# [16] = 7 DAB, water volume 500 L/ha, rate in treatment name, Prevathon 0.5 L/ha, listed as PA 2600 g/ha
# [17] = 10 DAA, water volume 500 L/ha, rate in treatment name, Prevathon 0.5 L/ha, listed as PA 585 g/ha
# [18] = 10 DAA, water volume 500 L/ha, rate in treatment name, Prevathon 0.5 L/ha, listed as PA 975 g/ha
# [19] = 10 DAA, water volume 500 L/ha, rate in treatment name, Prevathon 0.5 L/ha, listed as PA 1300 g/ha
# [20] = 10 DAA, water volume 500 L/ha, rate in treatment name, Prevathon 0.5 L/ha, listed as PA 2600 g/ha
# [21] = 10 DAB, water volume 500 L/ha, rate in treatment name, Prevathon 0.5 L/ha, listed as PA 585 g/ha
# [22] = 10 DAB, water volume 500 L/ha, rate in treatment name, Prevathon 0.5 L/ha, listed as PA 975 g/ha
# [23] = 10 DAB, water volume 500 L/ha, rate in treatment name, Prevathon 0.5 L/ha, listed as PA 1300 g/ha
# [24] = 10 DAB, water volume 500 L/ha, rate in treatment name, Prevathon 0.5 L/ha, listed as PA 2600 g/ha
# [25] = 14 DAB, water volume 500 L/ha, rate in treatment name, Prevathon 0.5 L/ha, listed as PA 585 g/ha
# [26] = 14 DAB, water volume 500 L/ha, rate in treatment name, Prevathon 0.5 L/ha, listed as PA 975 g/ha
# [27] = 14 DAB, water volume 500 L/ha, rate in treatment name, Prevathon 0.5 L/ha, listed as PA 1300 g/ha
# [28] = 14 DAB, water volume 500 L/ha, rate in treatment name, Prevathon 0.5 L/ha, listed as PA 2600 g/ha
# [29] = 21 DAB, water volume 500 L/ha, rate in treatment name, Prevathon 0.5 L/ha, listed as PA 585 g/ha
# [30] = 21 DAB, water volume 500 L/ha, rate in treatment name, Prevathon 0.5 L/ha, listed as PA 975 g/ha
# [31] = 21 DAB, water volume 500 L/ha, rate in treatment name, Prevathon 0.5 L/ha, listed as PA 1300 g/ha
smiles,measurement,setting,value
"CCCCCCCCC(=O)O [PA 650 g/ha, pelargonic acid]","DAMINS % (insect damage, % white heads)","0 DAA, water volume 200 L/ha",0.83%
same,DAMINS (number): mean number of insect damage (white head symptoms),"0 DAA, water volume 200 L/ha",3.4
same,"DAMINS % (insect damage, % white heads)",[1],0.79%
same,DAMINS (number): mean number of insect damage (white head symptoms),[1],3.23
same,"DAMINS % (insect damage, % white heads)",[2],0.9%
same,DAMINS (number): mean number of insect damage (white head symptoms),[2],3.8
same,"DAMINS % (insect damage, % white heads)",[3],0.75%
same,DAMINS (number): mean number of insect damage (white head symptoms),[3],3.11
same,"DAMINS % (insect damage, % white heads)",[4],0.74%
same,DAMINS (number): mean number of insect damage (white head symptoms),[4],3.14
same,"DAMINS % (insect damage, % white heads)","0 DAB, water volume 200 L/ha",0.25%
same,DAMINS (number): mean number of insect damage (white head symptoms),"0 DAB, water volume 200 L/ha",0.94
same,"DAMINS % (insect damage, % white heads)",[5],0.6%
same,DAMINS (number): mean number of insect damage (white head symptoms),[5],2.54
same,"DAMINS % (insect damage, % white heads)",[6],0.46%
same,DAMINS (number): mean number of insect damage (white head symptoms),[6],1.91
same,"DAMINS % (insect damage, % white heads)",[7],0.39%
same,DAMINS (number): mean number of insect damage (white head symptoms),[7],1.61
same,"DAMINS % (insect damage, % white heads)",[8],0.29%
same,DAMINS (number): mean number of insect damage (white head symptoms),[8],1.23
same,"DAMINS % (insect damage, % white heads)","7 DAA, water volume 200 L/ha",0.29%
same,DAMINS (number): mean number of insect damage (white head symptoms),"7 DAA, water volume 200 L/ha",1.16
same,"DAMINS % (insect damage, % white heads)",[9],0.65%
same,DAMINS (number): mean number of insect damage (white head symptoms),[9],2.93
same,"DAMINS % (insect damage, % white heads)",[10],0.53%
same,DAMINS (number): mean number of insect damage (white head symptoms),[10],2.13
same,"DAMINS % (insect damage, % white heads)",[11],0.4%
same,DAMINS (number): mean number of insect damage (white head symptoms),[11],1.74
same,"DAMINS % (insect damage, % white heads)",[12],0.39%
same,DAMINS (number): mean number of insect damage (white head symptoms),[12],1.79
same,"DAMINS % (insect damage, % white heads)","7 DAB, water volume 200 L/ha",0.55%
same,DAMINS (number): mean number of insect damage (white head symptoms),"7 DAB, water volume 200 L/ha",2.4
same,"DAMINS % (insect damage, % white heads)",[13],0.84%
same,DAMINS (number): mean number of insect damage (white head symptoms),[13],3.82
same,"DAMINS % (insect damage, % white heads)",[14],0.73%
same,DAMINS (number): mean number of insect damage (white head symptoms),[14],3.31
same,"DAMINS % (insect damage, % white heads)",[15],0.64%
same,DAMINS (number): mean number of insect damage (white head symptoms),[15],2.84
same,"DAMINS % (insect damage, % white heads)",[16],0.49%
same,DAMINS (number): mean number of insect damage (white head symptoms),[16],2.24
same,"DAMINS % (insect damage, % white heads)","10 DAA, water volume 200 L/ha",0.25%
same,DAMINS (number): mean number of insect damage (white head symptoms),"10 DAA, water volume 200 L/ha",0.99
same,"DAMINS % (insect damage, % white heads)",[17],0.63%
same,DAMINS (number): mean number of insect damage (white head symptoms),[17],2.92
same,"DAMINS % (insect damage, % white heads)",[18],0.58%
same,DAMINS (number): mean number of insect damage (white head symptoms),[18],2.26
same,"DAMINS % (insect damage, % white heads)",[19],0.41%
same,DAMINS (number): mean number of insect damage (white head symptoms),[19],1.77
same,"DAMINS % (insect damage, % white heads)",[20],0.31%
same,DAMINS (number): mean number of insect damage (white head symptoms),[20],1.49
same,"DAMINS % (insect damage, % white heads)","10 DAB, water volume 200 L/ha",0.44%
same,DAMINS (number): mean number of insect damage (white head symptoms),"10 DAB, water volume 200 L/ha",1.84
same,"DAMINS % (insect damage, % white heads)",[21],0.71%
same,DAMINS (number): mean number of insect damage (white head symptoms),[21],3.39
same,"DAMINS % (insect damage, % white heads)",[22],0.66%
same,DAMINS (number): mean number of insect damage (white head symptoms),[22],3.11
same,"DAMINS % (insect damage, % white heads)",[23],0.38%
same,DAMINS (number): mean number of insect damage (white head symptoms),[23],1.65
same,"DAMINS % (insect damage, % white heads)",[24],0.33%
same,DAMINS (number): mean number of insect damage (white head symptoms),[24],1.39
same,"DAMINS % (insect damage, % white heads)","14 DAB, water volume 200 L/ha",0.39%
same,DAMINS (number): mean number of insect damage (white head symptoms),"14 DAB, water volume 200 L/ha",1.53
same,"DAMINS % (insect damage, % white heads)",[25],0.56%
same,DAMINS (number): mean number of insect damage (white head symptoms),[25],2.35
same,"DAMINS % (insect damage, % white heads)",[26],0.64%
same,DAMINS (number): mean number of insect damage (white head symptoms),[26],2.82
same,"DAMINS % (insect damage, % white heads)",[27],0.45%
same,DAMINS (number): mean number of insect damage (white head symptoms),[27],1.94
same,"DAMINS % (insect damage, % white heads)",[28],0.3%
same,DAMINS (number): mean number of insect damage (white head symptoms),[28],1.25
same,"DAMINS % (insect damage, % white heads)","21 DAB, water volume 200 L/ha",0.36%
same,DAMINS (number): mean number of insect damage (white head symptoms),"21 DAB, water volume 200 L/ha",1.47
same,"DAMINS % (insect damage, % white heads)",[29],0.8%
same,DAMINS (number): mean number of insect damage (white head symptoms),[29],3.41
same,"DAMINS % (insect damage, % white heads)",[30],0.6%
same,DAMINS (number): mean number of insect damage (white head symptoms),[30],2.7
same,"DAMINS % (insect damage, % white heads)",[31],0.39%
same,DAMINS (number): mean number of insect damage (white head symptoms),[31],1.64
